# Measured values from ChEMBL document CHEMBL6182916, “Unexpected Discovery of a Novel Triphenylphosphonium Alkylalcohol That Triggers Cancer Cell Death via Mitophagy and Ferroptosis” (J Med Chem, 2025).
# Calls of active or inactive are those of the source. The calls are words filed in the database; no cut-off is given here.
# Key:
# [1] = Antiproliferative activity against human HUVEC cells assessed as inhibition of cell growth measured after 72 hrs by MTT assay; assay type: toxicity, cell-based
# [2] = Antiproliferative activity against human BEAS-2B cells assessed as inhibition of cell growth measured after 72 hrs by MTT assay; assay type: toxicity, cell-based
# NCI-H1975 = experiment: Antiproliferative activity against human NCI-H1975 cells assessed as inhibition of cell growth measured after 72 hrs by MTT assay; assay type: functional, cell-based; settings: NCI-H1975, 72 h
# [3] = Antiproliferative activity against human Osimertinib-resistant HCC827 cell assessed as inhibition of cell growth measured after 72 hrs by MTT assay; assay type: functional, cell-based
# A549 = experiment: Antiproliferative activity against human A549 cells assessed as inhibition of cell growth measured after 72 hrs by MTT assay; assay type: functional, cell-based; settings: A549, 72 h
# A-375 = experiment: Antiproliferative activity against human A-375 cells assessed as inhibition of cell growth measured after 72 hrs by MTT assay; assay type: functional, cell-based; settings: A-375, 72 h
# MCF7 = experiment: Antiproliferative activity against human MCF7 cells assessed as inhibition of cell growth measured after 72 hrs by MTT assay; assay type: functional, cell-based; settings: MCF7, 72 h
# [4] = Drug accumulation in mitochondria of human HCC827 cells at 10 uM incubated for 5 mins; assay type: ADME; settings: hcc827, 5 min
# [5] = Drug accumulation in mitochondria of human HCC827 cells at 10 uM incubated for 10 mins in presence of CCCP by RP-HPLC-UV analysis; assay type: ADME; settings: hcc827, 10 min
# Mitochondrial membrane = experiment: Induction of mitochondrial membrane depolarization in human HCC827 cells assessed as increase in J-monomer ratio at 0.125 to 0.5 uM incubated for 4 hrs by JC-1 staining based flow cytometric analysis; assay type: cell membranes; settings: dose 0.125-0.5 µM
# HCC827 [6] = experiment: Induction of mitochondrial dysfunction in human HCC827 cells assessed as reduction in glycolytic capacity at 0.125 to 5 uM incubated for 4 hrs by Seahorse XF96 extracellular flux analyzer; assay type: functional, cell-based; settings: dose 0.125-5 µM
# HCC827 [7] = experiment: Induction of mitochondrial dysfunction in human HCC827 cells assessed as reduction in glycolytic reserve at 0.125 to 5 uM incubated for 4 hrs by Seahorse XF96 extracellular flux analyzer; assay type: functional, cell-based; settings: dose 0.125-5 µM
# HCC827 [8] = experiment: Induction of mitochondrial dysfunction in human HCC827 cells assessed as cytochrome C release in cytoplasm at 0.4 uM by laser scanning confocal fluorescence microscopic analysis; assay type: functional, cell-based; settings: time 24-72 hrs
# HCC827 [9] = experiment: Downregulation of VDAC1 expression level in human HCC827 cells incubated for 24 hrs by Western blot analysis; assay type: functional, cell-based; settings: dose 0.25-5 µM
# HCC827 [10] = experiment: Downregulation of HK-2 expression level in human HCC827 cells 0.5 uM by Western blot analysis; assay type: functional, cell-based; settings: time 3-24 hrs
# HCC827 [11] = experiment: Downregulation of TOMM20 expression level in human HCC827 cells at 0.5 uM by Western blot analysis; assay type: functional, cell-based; settings: time 3-24 hrs
# HCC827 [12] = experiment: Induction of mitophagy in human HCC827 cells assessed as increase in LC3-II/LC-3-I ratio at 0.5 uM measured after 24 hrs by Western blot analysis; assay type: functional, cell-based
# HEK-293T = experiment: Downregulation of TIMM23 expression level in human HEK293T cells harbouring PINK knockout at 0.25 to 0.5 uM; assay type: functional, cell-based; settings: dose 0.25-0.5 µM
# HCC827 [13] = experiment: Induction of cell cycle arrest in human HCC827 assessed as increase in p21 expression level at 0.25 to 5 uM measured after 24 hrs by Western blot analysis; assay type: functional, cell-based; settings: dose 0.25-5 µM
# HCC827 [14] = experiment: Induction of cell cycle arrest in human HCC827 cells assessed as accumulation of cells at G1 phase at 0.1 uM incubated for 24 hrs by PI staining based flow cytometry analysis (reference value: 66.44%); assay type: functional
# HCC827 [15] = experiment: Induction of cell cycle arrest in human HCC827 cells assessed as accumulation of cells at G2 phase at 0.1 uM incubated for 24 hrs by PI staining based flow cytometry analysis (reference value: 7.15%); assay type: functional
# HCC827 [16] = experiment: Induction of cell cycle arrest in human HCC827 cells assessed as accumulation of cells at G2 phase at 0.2 uM incubated for 24 hrs by PI staining based flow cytometry analysis (reference value: 7.15%); assay type: functional
# HCC827 [17] = experiment: Induction of ferroptosis in human HCC827 cells assessed as decrease in GPX4 expression incubated for 24 hrs; assay type: functional, cell-based; settings: dose 0.25-0.5 µM
# HCC827 [18] = experiment: Induction of apoptosis in human HCC827 cells assessed as viable cells at 0.25 uM measured after 48 hrs by annexin V and PI staining based flow cytometry analysis (reference value: 96.74%); assay type: functional; settings: read-out: Activity
# HCC827 [19] = experiment: Induction of apoptosis in human HCC827 cells assessed as early apoptotic cells at 0.5 uM measured after 48 hrs by annexin V and PI staining based flow cytometry analysis (reference value: 0.70%); assay type: functional
# HCC827 [20] = experiment: Induction of apoptosis in human HCC827 cells assessed as necrotic cells at 1 uM measured after 24 hrs by annexin V and PI staining based flow cytometry analysis (Rvb =0.84%); assay type: functional
# HCC827 [21] = experiment: Antiproliferative activity against human HCC827 cells assessed as cell viability at 1 uM measured after 48 hrs in presence of deferoxamine by MTT assay relative to control; assay type: functional; settings: read-out: Activity
# HCC827 [22] = experiment: Antiproliferative activity against human HCC827 cells assessed as increase in cell viability at 1 uM measured after 48 hrs in presence of 3-MA by MTT assay; assay type: functional, cell-based
# HCC827 [23] = experiment: Antiproliferative activity against human HCC827 cells assessed as increase in cell viability at 1 uM measured after 48 hrs in presence of BFA by MTT assay; assay type: functional, cell-based
# HCC827 [24] = experiment: Effect on ATP5A expression in human HCC827 cells at 0.25 to 0.5 uM; assay type: functional, cell-based; settings: dose 0.25-0.5 µM
# HCC827 [25] = experiment: Effect on COX1 expression in human HCC827 cells at 0.25 to 0.5 uM; assay type: functional, cell-based; settings: dose 0.25-0.5 µM
# HCC827 [26] = experiment: Effect on UQCRC2 expression in human HCC827 cells at 0.25 to 0.5 uM incubated for 24 hrs by Western blot analysis; assay type: functional, cell-based; settings: dose 0.25-0.5 µM
# HCC827 [27] = experiment: Downregulation of SDHB expression in human HCC827 cells at 0.25 uM by Western blot analysis; assay type: functional, cell-based; settings: time <= 24.0 hrs
# HCC827 [28] = experiment: Downregulation of SDHB protein level in human HCC827 cells at 0.25 to 0.5 uM measured after 12 hrs; assay type: functional, cell-based; settings: dose 0.25-0.5 µM
# [29] = Toxicity in female BALB/c mouse assessed as histopathological changes in liver at 30 mg/kg, ip measured for 7 days by H and E staining based analysis; assay type: organism-based; settings: in vivo, 168 h, time 7 day
# [30] = Toxicity in female Kunming mouse assessed as change in body weight at 50 mg/kg, ip measured every two days for 7 days; assay type: organism-based; settings: in vivo, 168 h, time 7 day
# HCC827 [31] = experiment: Antitumor activity against human HCC827 cells xenografted in female nude mouse model assessed as suppression of tumor growth at 5 to 10 mg/kg, ip measured every two days for 14 days; assay type: functional, organism-based; settings: dose 5-10 mg/kg, time 14.0 day
# [32] = Toxicity in female nude mouse assessed as effect om weight loss at 5 to 10 mg/kg, ip measured after 14 days; assay type: organism-based; settings: in vivo, 336 h, dose 5-10 mg/kg, time 14 day
structure (smiles),measurement,setting,value
Cc1ccc([P+](CCCCCCCCCCO)(c2ccc(C)cc2)c2ccc(C)cc2)cc1.[Br-],IC50 at 72 h,[1],1800 nM
same,IC50 at 72 h,[2],1420 nM
same,IC50,NCI-H1975,200 nM
same,IC50,[3],230 nM
same,IC50,A549,490 nM
same,IC50,A-375,140 nM
same,IC50,MCF7,160 nM
same,Drug uptake,[4],93%
same,Drug uptake,[5],Not_active
same,Activity,Mitochondrial membrane,Active
same,Activity,HCC827 [6],Active
same,Activity,HCC827 [7],Active
same,Activity,HCC827 [8],Time-dependent-effect
same,Activity,HCC827 [9],Dose-dependent-effect
same,Activity,HCC827 [10],Time-dependent-effect
same,Activity,HCC827 [11],Time-dependent-effect
same,Activity,HCC827 [12],Active
same,Activity,HEK-293T,inactive
same,Activity,HCC827 [13],Active
same,Activity,HCC827 [14],71.14%
same,Activity,HCC827 [15],4.83%
same,Activity,HCC827 [16],3.91%
same,Activity,HCC827 [17],Dose-dependent-effect
same,viability at 0.25 µM,HCC827 [18],92.6%
same,Activity,HCC827 [19],2.34%
same,Activity,HCC827 [20],1.47%
same,viability at 1 µM,HCC827 [21],51.4%
same,Activity,HCC827 [22],Active
same,Activity,HCC827 [23],Active
same,Activity,HCC827 [24],Active
same,Activity,HCC827 [25],Active
same,Activity,HCC827 [26],Active
same,Activity,HCC827 [27],Time-dependent-effect
same,Activity,HCC827 [28],Active
same,Activity,[29],Non-toxic
same,Activity,[30],Toxic
same,Activity,HCC827 [31],Active
same,Activity,[32],Non-toxic
